Where no end group is shown, it is not given here. The star is where a group is joined. For = O=C*
What was measured:
Assay type in all cases: cell-based, human
[1] = test system: ERα promoter; assay: Bisulfite genomic sequencing of the ERα promoter in MDA-MB-231 cells; conditions: 48 hours, rWnt-5a 0.6 μg/ml, Foxy-5 100 μM
Description: MDA-MB-231 cells were grown in normal media and either left untreated, or stimulated with rWnt-5a protein (rWnt-5a, 0.6 μg/ml)) or the Wnt-5a derived Foxy-5 peptide (F5, 100 μM), for 48 hours. MCF-7 cells were grown for the same amount of time, and were left untreated. DNA was extracted from each sample and subjected to bisulfite modification. Bisulfite treated DNA was subjected to bisulfite genomic sequencing (BGS) of the ERα promoter using nested PCR with primers for the ERα promoter region. PCR products were cloned and 10 random clones sequenced. Filled (black) circles represent methylation at a given cytosine, empty (white) circles represent either unmethyllated cytosine or cytosines demethylated following rWnt-5a or Foxy-5 treatment. The numbers represent the position of CpG dinculeotides relative to the transcription start site (+1). The TATA box is located between positions −17 and +13.
DNA was extracted from cells according to standard procedures. 1 μg of DNA was then bisulfite treated using the EpiTect Bisulfite Kit (Qiagen) and amplified via nested PCR with primers for the ERα promoter region. PCR products were cloned using the TOPO TA cloning kit (Invitrogen). 10 random clones were sequenced using an AB13730 DNA analyzer (Applied Biosystems).

[2] = test system: ERα; assay: ERα protein expression by Western blot in stimulated MDA-MB-468 cells; conditions: stimulation for 24 and 48 hours
Description: Breast cancer cells were grown in 6 well plates, and stimulated with recombinant Wnt-5a protein (rW5a), the Wnt-5a derived Foxy-5 peptide (F5), recombinant Wnt-3a protein (rW3a), or a formylated random hexapeptide (Rdm) for 24 or 48 h. Following treatment cells were lysed and subjected to SDS-PAGE, transferred to nitrocellulose membranes and blotted for ERα expression. A: MDA-MB-231 cells stimulated with recombinant Wnt-5a, Foxy-5, Wnt-3a, Rdm. B: MDA-MB-468 cells stimulated with recombinant Wnt-5a or Foxy-5. C: 4T1 cells stimulated with recombinant Wnt-5a or Foxy-5. Positive controls (Pos) were included in order to confirm the correct band size for ERα. Two different positive controls were used: T47D cell lysates known to express ERα and MDA-MB-231 cells transiently transfected with a full length ERα plasmid, resulting in extremely high ERα expression (top row, right panel, third row, right panel). […]
Cells were lysed in Triton lysis buffer (50 mM Tris (pH7.5), 1% Triton x-100, 140 mM NaCl, 0.5 mM EDTA, 0.5 MgCl2, 10 mM NaF) with the addition of fresh leupeptin (1 μg/ml), Pefabloc (2 mM), aprotinin (20 μg/ml) and Na3VO4 (4 mM). […] Scanning and densitometry was performed using a Bio-Rad (Hercules Calif.) GS-800 densitometer with Quantity One software. […]

[3] = test system: MDA-MB-231 cells; assay: MTT proliferation assay; conditions: for growth inhibition (MTT) after tamoxifen: MDA-MB-231, stimulation 24 or 48 hours then tamoxifen 5 μM final 20 hours, compared with tamoxifen alone; for effect on breast cancer cell proliferation alone (MTT): without tamoxifen
Description: MDA-MB-231 cells were grown in 6 well plates and stimulated with recombinant Wnt-5a protein (rW5a) or the Wnt-5a derived Foxy-5 peptide (F5), for 24 or 48 h. Cells were treated with tamoxifen for the final 20 h and their apoptotic responses were measured via different methods. […] Arrows highlight apoptotic cells. Bars represent […]. B: Following treatment with rW5a, F5 and tamoxifen, or tamoxifen alone, cells were lysed and subjected to SDS-PAGE, transferred to nitrocellulose membranes and blotted for cleaved caspase 3. C: Treated cells were assessed for their relative caspase 3 activity using fluorometric spectrophotometry. The graph represents 6 separate experiments. * P<0.01, ** P<0.001. D: MTT assays were also performed on MDA-MB-231 cells treated with rWnt-5a, F5 and tamoxifen, or tamoxifen alone (MDA-MB-231 and MCF-7 cells) to assess cell growth inhibition. The graph represents the average of 6 separate experiments, with standard deviation represented by error bars. ** P<0.01, *** P<0.001.
Cell proliferation was measured via MTT assay (Vybrant) following manufacturers instructions. Briefly, MDA-MB-231 and MCF-7 cells were grown in 96 well plates, then either left unstimulated, or stimulated with rWnt-5a (0.6 μg/ml) or Foxy-5 peptide (100 μM) for 24 or 48 hours. Cells were then treated with 5 μM tamoxifen (Sigma) for the final 20 hours. All cells were then labeled with MTT (3-(4,5-dimethylthiazol-2-yl)-2,5-diphenyltetrazolium bromide), incubated at 37° C. for 4 hours and absorbance measured on a Biorad 680 microplate reader (Biorad). The raw absorbance was measured in 9 replicates at 570 nm, and read outs averaged and adjusted accordingly. The experiment was performed 6 times, and results averaged.

Molecule | methylation of the ERα CpG island [1] | ERα levels [2] | growth inhibition (MTT) after tamoxifen [3] | effect on breast cancer cell proliferation alone (MTT) [3]
formyl-MDGCEL (For-MDGCEL; listed as Homo sapiens) [Foxy-5] | demethylated | upregulated | statistically significant growth inhibition | Neither rWnt-5a nor Foxy-5 had an effect
recombinant Wnt-5a: recombinant Wnt-5a protein (R&D Systems) (protein, UniProt P41221 62-380, looked up) Protein Wnt-5a: IIGAQPLCSQLAGLSQGQKKLCHLYQDHMQYIGEGAKTGIKECQYQFRHRRWNCSTVDNTSVFGRVMQIGSRETAFTYAVSAAGVVNAMSRACREGELSTCGCSRAARPKDLPRDWLWGGCGDNIDYGYRFAKEFVDARERERIHAKGSYESARILMNLHNNEAGRRTVYNLADVACKCHGVSGSCSLKTCWLQLADFRKVGDALKEKYDSAAAMRLNSRGKLVQVNSRFNSPTTQDLVYIDPSPDYCVRNESTGSLGTQGRLCNKTSEGMDGCELMCCGRGYDQFKTVQTERCHCKFHWCCYVKCKKCTEIVDQFVCK | demethylated | upregulated | statistically significant growth inhibition | Neither rWnt-5a nor Foxy-5 had an effect
